From US9580411B2, “Substituted sulfonamide compounds” (Hoffmann-La Roche Inc., priority 2012, dated 2017)

The compounds below were run against hTRPA1 (Homo sapiens (Human), UniProt O75762) (assay: Dose response calcium flux assay (FLIPR), ChanTest hTRPA1-CHO stably transfected cell line). Conditions: CHO-K1 Tet-On human TRPA1 cells, cinnamaldehyde agonist (final 100 uM).
Type: cell-based
Method: IC50 Determinations of Exemplified Compounds Dose Response Assay: Chan Test hTRPA1-CHO Stably Transfected Cell Line
CHO-K1 Tet-On_HOMSA_TRPA1_Clone_20
Chinese Hamster Ovary cells, inducible expression
• Ham's F-12 with 10% tetracycline-free FBS • 1× penicillin-streptomycin • 1× glutamax • 0.01 mg/ml Blasticidin • 0.40 mg/ml Zeocin • The cell line doubling rate was ˜15 hours. […] Experiments were run at 24 hours post induction. Plating Conditions CHOK1/TRPA1 Cells: • Harvested cells with 0.025% trypsin/EDTA. • Resuspended cells in growth media without selection antibiotics. • Measured cell density and diluted to 2.4×10^5 cells/ml in media containing 1 ug/ml Doxycycline Plate 25 ul/well into 384 well black/clear tissue culture-treated plates. • Incubated overnight at 37° C. Calcium Flux Assay: Day of Assay: Reagents: • Replacement Buffer: Hank's Balanced Salt Solution, 20 mM HEPES along with 0.005% BSA and 2× Probenecid • Dye Loading Buffer: Cal-3 NW Calcium dye was prepared by dissolving the contents of one vial with […] Hank's Balanced Salt Solution containing 20 mM HEPES. • Control compounds for CHOK1/TRPA1 cells: AP-18, stock 10 mM, prepare 3.5× compound dilution in a Compound Buffer (HBSS/20 mM HEPES/0.005% BSA)—final concentration 10 uM. • Preparation of Cinnamaldehyde (agonist addition): FW=132.16 • Specific gravity=1.046 gm/cc • 1.32 gm/1.046 gm/cc=1.26 ml of stock • Add 1.74 ml DMSO=3.3 M stock • Working solution 4.5× (final 100 uM in Compound Buffer: HBSS/20 mM HEPES/0.005% BSA) • Compounds dilutions were prepared from 5 or 10 mM stock (100% DMSO): • Adjustments of volumes and concentrations were made at time of titration to reflect desired final assay concentrations. • Compounds were tested at either 20 μM three folds dilution 11 steps out or 30 μM two folds dilution 11 steps out. • 3 μl of diluted compound were transferred into Weidmann 384-well plate in duplicates side-by-side. • Compound plates were resuspended with 100 ul of HBSS/20 mM HEPES/0.005% BSA buffer (Compound Buffer): • column 1A-H: buffer/DMSO (bk) • column 2A-H: AP-18 (control antagonist for CHOK1 TRPA1 cells) • column 1I-P: ATP (control for CHOK1 teton cells) • column 2 I-P: 2APB (control antagonist for CHOK1/TRPM8 cells). Growth media was removed from the cell plates (20 ul) and 20 ul of the Replacement Buffer was added followed by addition of 25 ul of diluted dye. All three steps were performed using a Plate Washer BioTek 407. The plates were then incubated for 30′ at RT.
After incubation, both the cell and compound plates were brought to the FLIPR and 20 ul of the diluted compounds/antagonist/bk were transferred to the cell plates by the FLIPR. Plates were then incubated for 30′ at room temperature. After 30′ incubation, plates were returned to the FLIPR and 20 ul of 4.5× Cinnamaldehyde was added to the cell plates. During the compound addition as well as agonist addition, fluorescence readings were taken simultaneously from all 384 wells of the cell plate every 1.5 seconds. Five readings were taken to establish a stable baseline, then 20 ul of sample was rapidly (30 ul/sec) and simultaneously added to each well of the cell plate. The fluorescence was continuously monitored before, during and after sample/agonist addition for a total elapsed time of 100 seconds (compound addition) and 120 seconds (agonist addition). Responses (increase in peak fluorescence) in each well following agonist addition was determined. The initial fluorescence reading from each well, prior to ligand stimulation, was used a zero baseline value for the data from that well.

Sequence of hTRPA1 (O75762 whole entry): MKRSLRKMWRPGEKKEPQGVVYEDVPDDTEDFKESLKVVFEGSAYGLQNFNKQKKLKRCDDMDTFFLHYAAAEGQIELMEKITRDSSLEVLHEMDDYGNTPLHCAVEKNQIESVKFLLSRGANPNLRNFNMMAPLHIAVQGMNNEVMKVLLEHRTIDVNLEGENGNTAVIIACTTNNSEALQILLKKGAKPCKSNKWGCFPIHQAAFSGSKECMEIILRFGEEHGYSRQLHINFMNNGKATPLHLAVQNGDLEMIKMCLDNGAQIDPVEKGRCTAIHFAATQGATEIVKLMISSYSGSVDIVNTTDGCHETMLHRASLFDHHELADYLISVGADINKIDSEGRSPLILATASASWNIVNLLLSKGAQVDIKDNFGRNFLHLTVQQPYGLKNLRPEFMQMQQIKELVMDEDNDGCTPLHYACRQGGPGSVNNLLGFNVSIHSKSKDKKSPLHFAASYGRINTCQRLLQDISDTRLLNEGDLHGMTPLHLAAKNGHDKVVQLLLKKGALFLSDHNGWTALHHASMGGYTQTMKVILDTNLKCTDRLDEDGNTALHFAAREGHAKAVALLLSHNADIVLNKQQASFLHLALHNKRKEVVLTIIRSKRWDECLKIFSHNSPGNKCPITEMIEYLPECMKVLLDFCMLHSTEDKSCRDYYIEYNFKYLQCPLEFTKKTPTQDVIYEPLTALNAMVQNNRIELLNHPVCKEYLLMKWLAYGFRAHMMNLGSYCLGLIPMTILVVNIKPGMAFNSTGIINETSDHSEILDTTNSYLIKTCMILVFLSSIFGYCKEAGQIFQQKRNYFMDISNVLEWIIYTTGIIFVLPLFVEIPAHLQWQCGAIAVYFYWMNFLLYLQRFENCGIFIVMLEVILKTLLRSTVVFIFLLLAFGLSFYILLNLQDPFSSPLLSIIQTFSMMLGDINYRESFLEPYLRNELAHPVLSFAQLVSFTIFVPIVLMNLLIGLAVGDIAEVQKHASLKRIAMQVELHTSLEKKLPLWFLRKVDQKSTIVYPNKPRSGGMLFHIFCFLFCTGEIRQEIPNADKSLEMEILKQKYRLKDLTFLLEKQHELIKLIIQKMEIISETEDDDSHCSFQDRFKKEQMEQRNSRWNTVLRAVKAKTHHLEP

SMILES | IC50 [nM]
O=C(CNS(=O)(=O)c1ccc(F)cc1)NCc1cccc(-c2ccc(C(F)(F)F)cc2)c1 [Example 3, 2-(4-Fluoro-benzenesulfonylamino)-N-(4′-trifluoromethyl-biphenyl-3-ylmethyl)-acetamide] | 1080
C[C@H](C(=O)NCc1cccc(-c2ccc(C(F)(F)F)cc2)c1)N(C)S(=O)(=O)c1ccc(F)cc1 [Example 4, (R)-2-[(4-Fluoro-benzenesulfonyl)-methyl-amino]-N-(4′-trifluoromethyl-biphenyl-3-ylmethyl)-propionamide] | 1120
CC(C)[C@@H](C(=O)NCc1cccc(-c2ccc(C(F)(F)F)cc2)c1)N(C)S(=O)(=O)c1ccc(F)cc1 [Example 5, (S)-2-[(4-Fluoro-benzenesulfonyl)-methyl-amino]-3-methyl-N-(4′-trifluoromethyl-biphenyl-3-ylmethyl)-butyramide] | 1620
CC(C)[C@H](C(=O)NCc1cccc(-c2ccc(C(F)(F)F)cc2)c1)N(C)S(=O)(=O)c1ccc(F)cc1 [Example 6, (R)-2-[(4-Fluoro-benzenesulfonyl)-methyl-amino]-3-methyl-N-(4′-trifluoromethyl-biphenyl-3-ylmethyl)-butyramide] | 1110
CN(C(C)(C)C(=O)NCc1cccc(-c2ccc(C(F)(F)F)cc2)c1)S(=O)(=O)c1ccc(F)cc1 [Example 7, 2-[(4-Fluoro-benzenesulfonyl)-methyl-amino]-2-methyl-N-(4′-trifluoromethyl-biphenyl-3-ylmethyl)-propionamide] | 800
CN(CC(=O)NCc1cccc(-c2ccc(C(F)(F)F)cc2)c1F)S(=O)(=O)c1ccc(F)cc1 [Example 9, 2-[(4-Fluoro-benzenesulfonyl)-methyl-amino]-N-(2-fluoro-4′-trifluoromethyl-biphenyl-3-ylmethyl)-acetamide] | 1500
CN(CC(=O)NCc1ccc(-c2ccc(C(F)(F)F)cc2)cc1)S(=O)(=O)c1ccc(F)cc1 [Example 10, 2-[(4-Fluoro-benzenesulfonyl)-methyl-amino]-N-(4′-trifluoromethyl-biphenyl-4-ylmethyl)-acetamide] | 4800
CCN(CC(=O)NCc1ccc(-c2ccc(C(F)(F)F)cc2)cc1)S(=O)(=O)c1ccc(F)cc1 [Example 17, 2-[Ethyl-(4-fluoro-benzenesulfonyl)-amino]-N-(4′-trifluoromethyl-biphenyl-4-ylmethyl)-acetamide] | 4830
CCN(CC(=O)NCc1ccc(-c2cccc(C(F)(F)F)c2)cc1)S(=O)(=O)c1ccc(F)cc1 [Example 18, 2-[Ethyl-(4-fluoro-benzenesulfonyl)-amino]-N-(3′-trifluoromethyl-biphenyl-4-ylmethyl)-acetamide] | 4810
O=C(NCc1cccc(-c2ccc(C(F)(F)F)cc2)c1)C(NS(=O)(=O)c1ccc(F)cc1)C1CC1 (stereo not shown) [Example 24, 2-cyclopropyl-2-(4-fluoro-benzenesulfonylamino)-N-(4′-trifluoromethyl-biphenyl-3-ylmethyl)-acetamide] | 1030

The next compounds have a lower IC50 than those just listed; values first:

IC50 [nM] | SMILES
81 | CN(CC(=O)NCc1cccc(-c2ccc(C(F)(F)F)cc2)c1)S(=O)(=O)c1ccc(F)cc1 [Example 1, 2-[(4-Fluoro-benzenesulfonyl)-methyl-amino]-N-(4′-trifluoromethyl-biphenyl-3-ylmethyl)-acetamide]
35 | C[C@@H](C(=O)NCc1cccc(-c2ccc(C(F)(F)F)cc2)c1)N(C)S(=O)(=O)c1ccc(F)cc1 [Example 2, (S)-2-[(4-Fluoro-benzenesulfonyl)-methyl-amino]-N-(4′-trifluoromethyl-biphenyl-3-ylmethyl)-propionamide]
150 | CN(CC(=O)NCc1ccc(F)c(-c2ccc(C(F)(F)F)cc2)c1)S(=O)(=O)c1ccc(F)cc1 [Example 8, 2-[(4-Fluoro-benzenesulfonyl)-methyl-amino]-N-(6-fluoro-4′-trifluoromethyl-biphenyl-3-ylmethyl)-acetamide]
130 | CN(CC(=O)NCc1cc(F)cc(-c2ccc(C(F)(F)F)cc2)c1)S(=O)(=O)c1ccc(F)cc1 [Example 11, 2-[(4-Fluoro-benzenesulfonyl)-methyl-amino]-N-(5-fluoro-4′-trifluoromethyl-biphenyl-3-ylmethyl)-acetamide]
48 | CN(CC(=O)NCc1cc(-c2ccc(C(F)(F)F)cc2)ccc1F)S(=O)(=O)c1ccc(F)cc1 [Example 12, 2-[(4-Fluoro-benzenesulfonyl)-methyl-amino]-N-(4-fluoro-4′-trifluoromethyl-biphenyl-3-ylmethyl)-acetamide]
260 | O=C(CN(CC(F)(F)F)S(=O)(=O)c1ccc(F)cc1)NCc1cccc(-c2ccc(C(F)(F)F)cc2)c1 [Example 13, 2-[(4-fluoro-benzenesulfonyl)-(2,2,2-trifluoro-ethyl)-amino]-N-(4′-trifluoromethyl-biphenyl-3-ylmethyl)-acetamide]
37 | CCN(CC(=O)NCc1ccc(F)c(-c2ccc(C(F)(F)F)cc2)c1)S(=O)(=O)c1ccc(F)cc1 [Example 14, 2-[Ethyl-(4-fluoro-benzenesulfonyl)-amino]-N-(6-fluoro-4′-trifluoromethyl-biphenyl-3-ylmethyl)-acetamide]
28 | CCN(CC(=O)NCc1cc(F)cc(-c2ccc(C(F)(F)F)cc2)c1)S(=O)(=O)c1ccc(F)cc1 [Example 15, 2-[Ethyl-(4-fluoro-benzenesulfonyl)-amino]-N-(5-fluoro-4′-trifluoromethyl-biphenyl-3-ylmethyl)-acetamide]
24 | CCN(CC(=O)NCc1cc(-c2ccc(C(F)(F)F)cc2)ccc1F)S(=O)(=O)c1ccc(F)cc1 [Example 16, 2-[Ethyl-(4-fluoro-benzenesulfonyl)-amino]-N-(4-fluoro-4′-trifluoromethyl-biphenyl-3-ylmethyl)-acetamide]
98 | O=C(CN(CCO)S(=O)(=O)c1ccc(F)cc1)NCc1cccc(-c2ccc(C(F)(F)F)cc2)c1 [Example 19, 2-[(4-Fluoro-benzenesulfonyl)-(2-hydroxy-ethyl)-amino]-N-(4′-trifluoromethyl-biphenyl-3-ylmethyl)-acetamide]
160 | CC(O)CN(CC(=O)NCc1cccc(-c2ccc(C(F)(F)F)cc2)c1)S(=O)(=O)c1ccc(F)cc1 (stereo not shown) [Example 20, 2-[(4-Fluoro-benzenesulfonyl)-(2-hydroxy-propyl)-amino]-N-(4′-trifluoromethyl-biphenyl-3-ylmethyl)-acetamide]
97 | CN(CC(=O)NCc1cc(-c2ccc(C(F)(F)F)cc2)ncn1)S(=O)(=O)c1ccc(F)cc1 [Example 21, 2-[(4-Fluoro-benzenesulfonyl)-methyl-amino]-N-[6-(4-trifluoromethyl-phenyl)-pyrimidin-4-ylmethyl]-acetamide]
190 | O=C(CN(C1CC1)S(=O)(=O)c1ccc(F)cc1)NCc1cccc(-c2ccc(C(F)(F)F)cc2)c1 [Example 22, 2-[Cyclopropyl-(4-fluoro-benzenesulfonyl)-amino]-N-(4′-trifluoromethyl-biphenyl-3-ylmethyl)-acetamide]
29 | CCN(CC(=O)NCc1cccc(-c2ccc(C(F)(F)F)cc2)c1)S(=O)(=O)c1ccc(F)cc1 [Example 23, 2-[Ethyl-(4-fluoro-benzenesulfonyl)-amino]-N-(4′-trifluoromethyl-biphenyl-3-ylmethyl)-acetamide]
42 | CN(CC(=O)NCc1cc(-c2ccc(C(F)(F)F)cc2)ncn1)S(=O)(=O)c1ccc(Cl)s1 [Example 25, 2-[(5-chloro-thiophene-2-sulfonyl)-methyl-amino]-N-[6-(4-trifluoromethyl-phenyl)-pyrimidin-4-ylmethyl]-acetamide]
